From patent publication US20260210939A1, “MODIFIED OLFACTORY RECEPTORS” (GIVAUDAN SA, priority 2022, published 2026)

Tests used:
Assay type in all cases: cell-based
OR10A3 = target: T1, OR10A3 (Homo sapiens, UniProt P58181); assay: Dose-response test of single lactones on OR10A3 (luciferase)
T1 construct: Class II OR library members with modified C-terminal domains; expressed in transfected cells
T1 sequence (P58181 with tags, fused parts or gaps): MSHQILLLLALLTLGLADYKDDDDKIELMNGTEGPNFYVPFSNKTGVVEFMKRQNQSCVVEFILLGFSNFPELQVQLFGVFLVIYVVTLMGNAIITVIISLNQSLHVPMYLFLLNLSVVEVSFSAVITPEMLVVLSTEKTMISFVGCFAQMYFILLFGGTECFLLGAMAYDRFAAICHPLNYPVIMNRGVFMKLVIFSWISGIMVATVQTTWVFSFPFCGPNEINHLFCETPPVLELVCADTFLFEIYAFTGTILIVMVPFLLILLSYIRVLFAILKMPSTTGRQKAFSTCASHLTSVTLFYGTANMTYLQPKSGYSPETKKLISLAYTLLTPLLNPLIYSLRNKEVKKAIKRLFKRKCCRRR
Protocol: (§1) In a subsequent de-convultion experiment, the single ingredients were tested in a dose-response test on all the identified OR. […] Thus, OR2AP1 and OR2J2 are particularly strongly activated by the long-chain dodecalactone gamma, while OR10A3 is very sensitive to several longer chain lactones. […] Among the five OR, OR10A3 is the most sensitive.

OR8K3 = target: T2, OR8K3 (Homo sapiens, UniProt Q8NH51, D295E/L122R/Y298D); assay: cell-based
T2 construct: Improved functional expression of modified OR-genes containing the truncated, optimized C-terminus; expressed in transfected cells; host or cells: HEK293T stably expressing human RTP1S(V227I) and RTP2(L220R)
T2 sequence (Q8NH51 with tags, fused parts or gaps L122R/D295E/Y298D): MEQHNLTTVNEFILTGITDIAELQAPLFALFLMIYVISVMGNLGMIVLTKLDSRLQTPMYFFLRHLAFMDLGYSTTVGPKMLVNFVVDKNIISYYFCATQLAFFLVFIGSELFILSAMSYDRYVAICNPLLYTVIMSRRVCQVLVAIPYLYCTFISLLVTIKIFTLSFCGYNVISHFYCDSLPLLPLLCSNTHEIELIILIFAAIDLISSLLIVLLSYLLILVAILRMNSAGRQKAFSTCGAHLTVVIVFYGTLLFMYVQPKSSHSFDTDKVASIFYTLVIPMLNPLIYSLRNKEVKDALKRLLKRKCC

[1] = target: T3, OR10A6(A117V, V140G, L287P) (Homo sapiens, UniProt Q8NH74, A117V/L287P/V140G); assay: Dose-response test of single lactones on OR10A6(A117V, V140G, L287P)
T3 construct: expressed in transfected cells; transient transfection of pcDNA3.1(+) OR plasmid
T3 sequence (Q8NH74 with tags, fused parts or gaps A117V/V140G/L287P limits assumed): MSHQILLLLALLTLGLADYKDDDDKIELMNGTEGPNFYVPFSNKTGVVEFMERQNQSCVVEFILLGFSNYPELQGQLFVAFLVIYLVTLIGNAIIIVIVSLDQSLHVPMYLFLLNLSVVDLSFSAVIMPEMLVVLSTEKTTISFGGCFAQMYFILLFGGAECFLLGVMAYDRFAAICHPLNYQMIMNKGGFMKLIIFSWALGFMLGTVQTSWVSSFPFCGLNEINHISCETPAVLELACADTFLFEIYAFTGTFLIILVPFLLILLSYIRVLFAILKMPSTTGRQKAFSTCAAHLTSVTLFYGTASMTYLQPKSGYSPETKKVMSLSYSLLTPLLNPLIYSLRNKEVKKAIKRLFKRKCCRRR
Protocol: as §1

OR10J1(M51I, I92M) = target: T4, OR10J1(M51I, I92M) (Homo sapiens, UniProt P30954, I103M/M62I); assay: Dose-response test of single lactones on OR10J1(M51I, I92M)
T4 construct: expressed in transfected cells; transient transfection of pcDNA3.1(+) OR plasmid
T4 sequence (P30954 with tags, fused parts or gaps M62I/I103M): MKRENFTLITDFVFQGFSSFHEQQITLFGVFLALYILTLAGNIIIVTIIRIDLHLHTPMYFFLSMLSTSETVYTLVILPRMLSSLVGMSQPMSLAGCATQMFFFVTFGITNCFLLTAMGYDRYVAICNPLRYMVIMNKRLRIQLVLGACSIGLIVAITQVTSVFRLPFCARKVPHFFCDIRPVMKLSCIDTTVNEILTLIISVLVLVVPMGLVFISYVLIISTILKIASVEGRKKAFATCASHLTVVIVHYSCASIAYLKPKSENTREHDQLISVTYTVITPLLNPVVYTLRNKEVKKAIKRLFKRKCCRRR
Protocol: as §1

OR2J2 = target: T5, OR2J2 (Homo sapiens, UniProt O76002, A146V/A218T/A302I/G300K/H297E/H74Y); assay: Dose-response test of single lactones on OR2J2
T5 construct: expressed in transfected cells; transient transfection of pcDNA3.1(+) OR plasmid
T5 sequence (O76002 with tags, fused parts or gaps H74Y/A146V/A218T/H297E/G300K/A302I limits assumed): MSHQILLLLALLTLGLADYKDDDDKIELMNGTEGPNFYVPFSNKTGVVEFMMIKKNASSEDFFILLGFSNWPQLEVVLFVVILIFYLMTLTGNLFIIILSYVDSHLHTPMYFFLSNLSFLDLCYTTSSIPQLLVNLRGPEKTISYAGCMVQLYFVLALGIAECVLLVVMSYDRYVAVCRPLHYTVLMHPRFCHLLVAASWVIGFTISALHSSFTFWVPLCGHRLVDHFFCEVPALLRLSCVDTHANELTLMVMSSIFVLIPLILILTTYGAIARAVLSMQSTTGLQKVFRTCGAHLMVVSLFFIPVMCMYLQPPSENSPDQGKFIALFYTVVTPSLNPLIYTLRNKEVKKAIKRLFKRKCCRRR
Protocol: as §1

CCCC1CCC(=O)O1 (stereo not shown) [Heptalactone gamma]
EC10, concentration for 10-fold OR activation (OR10A3): 298.04 μM

CC1CCC(C(C)C)C(O)C1 (stereo not shown) [Menthol]
Comments on efficacy (OR8K3): 3-fold lower
functional response of chimeric OR8K3 (OR8K3; C-terminal sequence of OR1N2 or OR5AN1): did not show any functional response
EC50 (OR8K3; changed C-term. SEQ ID NO: 86): 115 µM
Fold-improvement potency (OR8K3; changed C-term. vs wild-type): 2
Fold-improvement threshold (OR8K3; changed C-term. vs wild-type): 14.4
EC50 (OR8K3; wild-type): 236 µM

CCCCCC1CCC(=O)O1 (stereo not shown) [Nonalactone gamma]
EC10, concentration for 10-fold OR activation (OR10A3): 2.83 μM
EC2 (concentration for 2-fold luciferase induction) [1]: 11.34 µM
EC2 (concentration for 2-fold luciferase induction) (OR10J1(M51I, I92M)): 11.14 µM
EC2 (concentration for 2-fold luciferase induction) (OR2J2): 12.85 µM

CCCCC1CCC(=O)O1 (stereo not shown) [Octalactone gamma]
EC10, concentration for 10-fold OR activation (OR10A3): 26.93 μM
EC2 (concentration for 2-fold luciferase induction) (OR10J1(M51I, I92M)): 101.73 µM
EC2 (concentration for 2-fold luciferase induction) (OR2J2): 65.20 µM

CC(C)[C@@H]1CC[C@@H](C)CC1=O [menthone]
activation of the modified receptor variant (OR8K3; OR8K3, SEQ ID NO: 86): also activating the receptor, although with a lower potency
inactive up to concentration (OR8K3; wild-type OR8K3): > 316 µM
